Measurements from patent US20240025919A1, “AZA-TETRACYCLIC OXAZEPINE COMPOUNDS AND USES THEREOF” (Genentech, Inc., priority 2022, published 2024).

Tests used:
KRAS WT = KRAS WT (Homo sapiens (Human), UniProt P01116); assay: KRAS WT Biochemical Assay, BODIPY-GDP Exchange TR-FRET (Example 502; 0.06 nM KRAS WT, 15 nM GDP, 300 nM SOS1, 120-minute incubation); settings: read-out: KRas HTRF IC50
Summary of the method: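 Biotin-tagged recombinant KRAS WT (0.06 nM) preloaded with 15 nM GDP and Tb-streptavidin, 10 min RT, then exchange started with 300 nM SOS1 plus 300 nM BODIPY-GDP in HEPES pH 7.5 buffer with MgCl2. TR-FRET 520/490 ratio read after 120 min; normalized to DMSO and full-inhibition control; IC50 from 4-parameter fit.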

KRAS G12D = KRAS G12D (Homo sapiens (Human), UniProt P01116, G12D); assay: KRAS G12D LoEnz Biochemical Assay, BODIPY-GDP Exchange TR-FRET (SOS1-mediated nucleotide exchange); settings: read-out: KRas (G12D) GDP HTRF IC50
KRAS G12D, sequence (P01116-2 other isoform, or with tags, fused parts or gaps G12D): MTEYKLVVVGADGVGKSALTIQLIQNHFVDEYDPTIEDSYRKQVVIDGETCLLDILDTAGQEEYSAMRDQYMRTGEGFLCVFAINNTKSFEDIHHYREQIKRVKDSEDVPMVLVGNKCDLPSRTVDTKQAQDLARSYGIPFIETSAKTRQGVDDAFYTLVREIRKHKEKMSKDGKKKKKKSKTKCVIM

KRAS WT, sequence (P01116-2 other isoform, or with tags, fused parts or gaps): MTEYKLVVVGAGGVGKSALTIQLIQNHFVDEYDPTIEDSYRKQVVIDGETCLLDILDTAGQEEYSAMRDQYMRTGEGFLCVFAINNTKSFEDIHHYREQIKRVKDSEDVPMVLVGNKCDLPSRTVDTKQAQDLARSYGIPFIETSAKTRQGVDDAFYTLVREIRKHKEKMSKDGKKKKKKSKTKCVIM

Row | SMILES | IC50 (KRAS WT) [nM] | IC50 (KRAS G12D) [nM]
1 | C[C@@H]1Oc2nc(-c3cc(N)cc(F)c3C(F)(F)F)c(F)c3nc(OC[C@@H]4CC[C@H]5COCCN54)nc(c23)N2C[C@H]3CC[C@H](N3)[C@@H]12 [Compound 77, 3-Fluoro-5-((5S,5aS,6S,9R)-1-fluoro-12-(((6S,8aS)-hexahydro-1H-pyrrolo[2,1-c][1,4]oxazin-6-yl)methoxy)-5-methyl-5a,6,7,8,9,10-hexahydro-5H-4-oxa-3,10a,11,13,14-pentaaza-6,9-methanonaphtho[1,8-ab]heptalen-2-yl)-4-(trifluoromethyl)aniline] | 21.1 | 0.24
2 | Cc1c(F)c(N)cc(-c2nc3c4c(nc(OC[C@@]56CCCN5CC5(CC5(F)F)C6)nc4c2F)N2C[C@H]4CC[C@H](N4)[C@H]2[C@H](C)O3)c1C(F)(F)F (stereo partly drawn) [Compound 62, 5-((5S,5aS,6S,9R)-12-(((7a'S)-2,2-Difluorodihydro-1′H,3′H-spiro[cyclopropane-1,2′-pyrrolizin]-7a′(5′H)-yl)methoxy)-1-fluoro-5-methyl-5a,6,7,8,9,10-hexahydro-5H-4-oxa-3,10a,11,13,14-pentaaza[6,9]methanonaphtho[1,8-ab]heptalen-2-yl)-2-fluoro-3-methyl-4-(trifluoromethyl)aniline] | 0.29 | 0.083
3 | CCc1cccc2nc(N)cc(-c3nc4c5c(nc(OC[C@@]67CCCN6C[C@H](F)C7)nc5c3F)N3C[C@H]5CC[C@H](N5)[C@H]3[C@H](C)O4)c12 [Compound 179, 5-Ethyl-4-((5S,5aS,6S,9R)-1-fluoro-12-(((2R,7aS)-2-fluorotetrahydro-1H-pyrrolizin-7a(5H)-yl)methoxy)-5-methyl-5a,6,7,8,9,10-hexahydro-5H-4-oxa-3,10a,11,13,14-pentaaza-6,9-methanonaphtho[1,8-ab]heptalene-2-yl)quinolin-2-amine] | 659 | 6.64
4 | Cc1cc(N)c(F)c(-c2nc3c4c(nc(OC[C@@H]5CC[C@H]6COCCN65)nc4c2F)N2C[C@H]4CC[C@H](N4)[C@H]2[C@H](C)O3)c1C(F)(F)F [Compound 97, 2-Fluoro-3-((5S,5aS,6S,9R)-1-fluoro-12-(((6S,8aS)-hexahydro-1H-pyrrolo[2,1-c][1,4]oxazin-6-yl)methoxy)-5-methyl-5a,6,7,8,9,10-hexahydro-5H-4-oxa-3,10a,11,13,14-pentaaza-6,9-methanonaphtho[1,8-ab]heptalen-2-yl)-5-methyl-4-(trifluoromethyl)aniline] | 43.7 | 0.37
5 | C[C@@H]1Oc2nc(-c3cc(N)c(F)cc3C(F)(F)F)c(F)c3nc(OC[C@@H]4CC[C@H]5COCCN54)nc(c23)N2C[C@H]3CC[C@H](N3)[C@@H]12 [Compound 70, 2-Fluoro-5-((5S,5aS,6S,9R)-1-fluoro-12-(((6S,8aS)-hexahydro-1H-pyrrolo[2,1-c][1,4]oxazin-6-yl)methoxy)-5-methyl-5a,6,7,8,9,10-hexahydro-5H-4-oxa-3,10a,11,13,14-pentaaza-6,9-methanonaphtho[1,8-ab]heptalen-2-yl)-4-(trifluoromethyl)aniline] | 169 | 0.71
6 | Cc1c(F)c(N)c(F)c(-c2nc3c4c(nc(OC[C@@H]5CC[C@H]6COCCN65)nc4c2F)N2C[C@H]4CC[C@H](N4)[C@H]2[C@H](C)O3)c1C(F)(F)F [Compound 96, 2,6-Difluoro-3-((5S,5aS,6S,9R)-1-fluoro-12-(((6S,8aS)-hexahydro-1H-pyrrolo[2,1-c][1,4]oxazin-6-yl)methoxy)-5-methyl-5a,6,7,8,9,10-hexahydro-5H-4-oxa-3,10a,11,13,14-pentaaza-6,9-methanonaphtho[1,8-ab]heptalen-2-yl)-5-methyl-4-(trifluoromethyl)aniline] | 75.8 | 0.433
7 | Cc1c(F)c(N)cc(-c2nc3c4c(nc(OCC56C[C@@H](F)CN5C[C@H](F)C6)nc4c2F)N2C[C@H]4CC[C@H](N4)[C@H]2[C@H](C)O3)c1C(F)(F)F [Compound 140, 5-((5S,5aS,6S,9R)-12-(((2R,6R)-2,6-Difluorotetrahydro-1H-pyrrolizin-7a(5H)-yl)methoxy)-1-fluoro-5-methyl-5a,6,7,8,9,10-hexahydro-5H-4-oxa-3,10a,11,13,14-pentaaza-6,9-methanonaphtho[1,8-ab]heptalen-2-yl)-2-fluoro-3-methyl-4-(trifluoromethyl)aniline] | 18.4 | 0.14
8 | Cc1c(F)c(N)cc(-c2nc3c4c(nc(OCC[C@@H]5CC[C@H]6COCCN56)nc4c2F)N2C[C@H]4CC[C@H](N4)[C@H]2[C@H](C)O3)c1C(F)(F)F [Compound 154, 2-Fluoro-5-((5S,5aS,6S,9R)-1-fluoro-12-(2-((6S,8aS)-hexahydro-1H-pyrrolo[2,1-c][1,4]oxazin-6-yl)ethoxy)-5-methyl-5a,6,7,8,9,10-hexahydro-5H-4-oxa-3,10a,11,13,14-pentaaza-6,9-methanonaphtho[1,8-ab]heptalen-2-yl)-3-methyl-4-(trifluoromethyl)aniline] | 118 | 0.47
9 | Cc1c(F)c(N)cc(-c2nc3c4c(nc(OCC5(CN6CCO[C@@H](CF)C6)CC5)nc4c2F)N2C[C@H]4CC[C@H](N4)[C@H]2[C@H](C)O3)c1C(F)(F)F [Compound 172, 2-Fluoro-5-((5S,5aS,6S,9R)-1-fluoro-12-((1-(((R)-2-(fluoromethyl)morpholino)methyl)cyclopropyl)methoxy)-5-methyl-5a,6,7,8,9,10-hexahydro-5H-4-oxa-3,10a,11,13,14-pentaaza-6,9-methanonaphtho[1,8-ab]heptalen-2-yl)-3-methyl-4-(trifluoromethyl)aniline] | 11.1 | 0.24
10 | Cc1cc(N)c(F)c(-c2nc3c4c(nc(OC[C@@H]5CC[C@H]6COCCN65)nc4c2F)N2C[C@H]4CC[C@H](N4)[C@H]2[C@H](C)O3)c1C1CC1 [Compound 98, 4-Cyclopropyl-2-fluoro-3-((5S,5aS,6S,9R)-1-fluoro-12-(((6S,8aS)-hexahydro-1H-pyrrolo[2,1-c][1,4]oxazin-6-yl)methoxy)-5-methyl-5a,6,7,8,9,10-hexahydro-5H-4-oxa-3,10a,11,13,14-pentaaza-6,9-methanonaphtho[1,8-ab]heptalen-2-yl)-5-methylaniline] | 553 | 4.25
11 | Cc1c(F)c(N)c(F)c(-c2nc3c4c(nc(OC[C@@]56CCCN5C[C@H](F)C6)nc4c2F)N2C[C@H]4CC[C@H](N4)[C@H]2[C@H](C)O3)c1C(F)(F)F [Compound 91, 2,6-Difluoro-3-((5S,5aS,6S,9R)-1-fluoro-12-(((2R,7aS)-2-fluorotetrahydro-1H-pyrrolizin-7a(5H)-yl)methoxy)-5-methyl-5a,6,7,8,9,10-hexahydro-5H-4-oxa-3,10a,11,13,14-pentaaza-6,9-methanonaphtho[1,8-ab]heptalen-2-yl)-5-methyl-4-(trifluoromethyl)aniline] | 5.71 | 0.182
12 | C[C@@H]1Oc2nc(-c3c(C#N)c(N)c(F)c(F)c3C(F)(F)F)c(F)c3nc(OC[C@@]45CCCN4C[C@H](F)C5)nc(c23)N2C[C@H]3CC[C@H](N3)[C@@H]12 [Compound 107, 2-Amino-3,4-difluoro-6-((5S,5aS,6S,9R)-1-fluoro-12-(((2R,7aS)-2-fluorotetrahydro-1H-pyrrolizin-7a(5H)-yl)methoxy)-5-methyl-5a,6,7,8,9,10-hexahydro-5H-4-oxa-3,10a,11,13,14-pentaaza-6,9-methanonaphtho[1,8-ab]heptalen-2-yl)-5-(trifluoromethyl)benzonitrile] | 167 | 1.39
13 | Cc1cc2[nH]ncc2c(-c2nc3c4c(nc(OC[C@@]56CCCN5C[C@H](F)C6)nc4c2F)N2C[C@H]4CC[C@H](N4)[C@H]2[C@H](C)O3)c1Cl [Compound 176, (5S,5aS,6S,9R)-2-(5-Chloro-6-methyl-1H-indazol-4-yl)-1-fluoro-12-(((2R,7aS)-2-fluorotetrahydro-1H-pyrrolizin-7a(5H)-yl)methoxy)-5-methyl-5a,6,7,8,9,10-hexahydro-5H-4-oxa-3,10a,11,13,14-pentaaza-6,9-methanonaphtho[1,8-ab]heptalene] | 809 | 2.8
14 | C[C@@H]1Oc2nc(-c3cccc4sc(N)nc34)c(F)c3nc(OC[C@@]45CCCN4C[C@H](F)C5)nc(c23)N2C[C@H]3CC[C@H](N3)[C@@H]12 [Compound 116, 4-((5S,5aS,6S,9R)-1-fluoro-12-(((2R,7aS)-2-fluorotetrahydro-1H-pyrrolizin-7a(5H)-yl)methoxy)-5-methyl-5a,6,7,8,9,10-hexahydro-5H-4-oxa-3,10a,11,13,14-pentaaza-6,9-methanonaphtho[1,8-ab]heptalen-2-yl)benzo[d]thiazol-2-amine] | 213 | 2.41
15 | Cc1c(F)c(N)cc(-c2nc3c4c(nc(OC[C@@H]5CC[C@H]6C[C@@H](F)CN56)nc4c2F)N2C[C@H]4CC[C@H](N4)[C@H]2[C@H](C)O3)c1C(F)(F)F (single isomer, unassigned) [152 (isomer 1)] | 15.7 | 0.1
16 | Cc1cc(N)c(F)c(-c2nc3c4c(nc(OC[C@@H]5CC[C@H]6COCCN65)nc4c2F)N2C[C@H]4CC[C@H](N4)[C@H]2[C@H](C)O3)c1C(F)(F)C(F)(F)F [Compound 100, 2-Fluoro-3-((5S,5aS,6S,9R)-1-fluoro-12-(((6S,8aS)-hexahydro-1H-pyrrolo[2,1-c][1,4]oxazin-6-yl)methoxy)-5-methyl-5a,6,7,8,9,10-hexahydro-5H-4-oxa-3,10a,11,13,14-pentaaza-6,9-methanonaphtho[1,8-ab]heptalen-2-yl)-5-methyl-4-(perfluoroethyl)aniline] | 495 | 1.49
17 | Cc1c(F)c(N)cc(-c2nc3c4c(nc(OC[C@@H]5CCC6CC(F)(F)CCN65)nc4c2F)N2C[C@H]4CC[C@H](N4)[C@H]2[C@H](C)O3)c1C(F)(F)F (single isomer, unassigned) [119 (isomer 2)] | 75 | 0.37
